Like-named read-outs stand apart in the source and are kept apart here.
Legend:
Assay in all cases: Test D pre-/postemergence plant response
Type in all cases: in vivo
[1] = test system: oilseed rape (Brassica napus); details: Brassica napus; for plant injury at 16 g/ha: 16 g ai/ha; for plant injury at 31 g/ha: 31 g ai/ha; for plant injury at 62 g/ha: 62 g ai/ha; for plant injury at 125 g/ha: 125 g ai/ha
Outline: (§1)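 0 = no effect, 100 = complete control: plants were scored this way by visual comparison with controls 13 to 15 days post-treatment. Application was preemergence to sown loam/sand pots or postemergence to 2–18 cm seedlings in peat-based mix.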

soybean (Glycine max) = details: Glycine max; for plant injury at 16 g/ha: 16 g ai/ha; for plant injury at 31 g/ha: 31 g ai/ha; for plant injury at 62 g/ha: 62 g ai/ha; for plant injury at 125 g/ha: 125 g ai/ha
Outline: as §1

[2] = test system: giant foxtail (Setaria faberii); details: Setaria faberi; for pest or weed control at 16 g/ha: 16 g ai/ha; for pest or weed control at 31 g/ha: 31 g ai/ha; for pest or weed control at 62 g/ha: 62 g ai/ha; for pest or weed control at 125 g/ha: 125 g ai/ha
Outline: as §1

[3] = test system: velvetleaf (Abutilon theophrasti); details: Abutilon theophrasti; for pest or weed control at 16 g/ha: 16 g ai/ha; for pest or weed control at 31 g/ha: 31 g ai/ha; for pest or weed control at 62 g/ha: 62 g ai/ha; for pest or weed control at 125 g/ha: 125 g ai/ha
Outline: as §1

[4] = test system: Italian ryegrass (Lolium multiflorum); details: Lolium multiflorum; for pest or weed control at 16 g/ha: 16 g ai/ha; for pest or weed control at 31 g/ha: 31 g ai/ha; for pest or weed control at 62 g/ha: 62 g ai/ha; for pest or weed control at 125 g/ha: 125 g ai/ha
Outline: as §1

[5] = test system: large (Lg) crabgrass (Digitaria sanguinalis); details: Digitaria sanguinalis; for pest or weed control at 16 g/ha: 16 g ai/ha; for pest or weed control at 31 g/ha: 31 g ai/ha; for pest or weed control at 62 g/ha: 62 g ai/ha; for pest or weed control at 125 g/ha: 125 g ai/ha
Outline: as §1

corn (Zea mays) = details: Zea mays; for Corn plant response rating (crop injury, 0 = no effect, 100 = complete kill) at 62 g/ha: 62 g ai/ha
Outline: as §1

[6] = test system: blackgrass (Alopecurus myosuroides); details: Alopecurus myosuroides; for pest or weed control at 16 g/ha: 16 g ai/ha; for pest or weed control at 31 g/ha: 31 g ai/ha; for pest or weed control at 62 g/ha: 62 g ai/ha; for pest or weed control at 125 g/ha: 125 g ai/ha
Outline: as §1

[7] = test system: ragweed (common ragweed, Ambrosia elatior); details: Ambrosia artemisiifolia; for pest or weed control at 16 g/ha: 16 g ai/ha; for pest or weed control at 31 g/ha: 31 g ai/ha; for pest or weed control at 62 g/ha: 62 g ai/ha; for pest or weed control at 125 g/ha: 125 g ai/ha
Outline: as §1

[8] = pre-emergence, Preemergence, scale 0 to 100 (0 no effect, 100 complete control), read-out: Plant response rating, Oilseed Rape
[9] = pre-emergence, Preemergence, scale 0 to 100 (0 no effect, 100 complete control), read-out: Plant response rating, Soybean
[10] = post-emergence, Postemergence, scale 0 to 100, 0 no effect, 100 complete control, read-out: Plant response rating, Foxtail, Giant
[11] = pre-emergence, Preemergence, scale 0 to 100 (0 no effect, 100 complete control), read-out: Plant response rating, Foxtail, Giant
[12] = pre-emergence, Preemergence, scale 0 to 100 (0 no effect, 100 complete control), read-out: Plant response rating, Velvetleaf
[13] = pre-emergence, Preemergence, scale 0 to 100 (0 no effect, 100 complete control), read-out: Plant response rating, Ryegrass, Italian
[14] = post-emergence, Postemergence, scale 0 to 100, 0 no effect, 100 complete control, read-out: Plant response rating, Crabgrass, Large
[15] = pre-emergence, Preemergence, scale 0 to 100 (0 no effect, 100 complete control), read-out: Plant response rating, Crabgrass, Large
[16] = post-emergence, Postemergence, scale 0 to 100, 0 no effect, 100 complete control, read-out: Plant response rating, Blackgrass
[17] = pre-emergence, Preemergence, scale 0 to 100 (0 no effect, 100 complete control), read-out: Plant response rating, Blackgrass
[18] = pre-emergence, Preemergence, scale 0 to 100 (0 no effect, 100 complete control), read-out: Plant response rating, Ragweed

Compound: FC(F)(F)c1cc(-c2ccccc2Oc2ncc(Cl)cn2)no1 [Compound 200, 5-chloro-2-[2-[5-(trifluoromethyl)-3-isoxazolyl]phenoxy]pyrimidine]
- plant injury at 16 g/ha ([1]; post-emergence, Postemergence, read-out: Plant response rating (scale 0 to 100), Oilseed Rape): 70%
- plant injury at 31 g/ha ([1]; post-emergence, Postemergence, scale 0 to 100 (0 no effect, 100 complete control), read-out: Oilseed Rape plant response rating): 85%
- plant injury at 62 g/ha ([1]; post-emergence, Postemergence, scale 0 to 100, 0 no effect, 100 complete control, read-out: Oilseed Rape plant response rating): 100%
- plant injury at 125 g/ha ([1]; post-emergence, Postemergence, scale 0 to 100, 0 no effect, 100 complete control, read-out: Plant response rating, Oilseed Rape): 100%
- plant injury at 125 g/ha ([1]; pre-emergence, Preemergence, read-out: Plant response rating (scale 0 to 100), Oilseed Rape): 100%
- plant injury at 16 g/ha [1, 8]: 85%
- plant injury at 31 g/ha [1, 8]: 100%
- plant injury at 62 g/ha [1, 8]: 100%
- plant injury at 16 g/ha (soybean (Glycine max); post-emergence, Postemergence, read-out: Plant response rating (scale 0 to 100), Soybean): 60%
- plant injury at 31 g/ha (soybean (Glycine max); post-emergence, Postemergence, scale 0 to 100 (0 no effect, 100 complete control), read-out: Soybean plant response rating): 85%
- plant injury at 62 g/ha (soybean (Glycine max); post-emergence, Postemergence, scale 0 to 100, 0 no effect, 100 complete control, read-out: Soybean plant response rating): 90%
- plant injury at 125 g/ha (soybean (Glycine max); post-emergence, Postemergence, scale 0 to 100, 0 no effect, 100 complete control, read-out: Plant response rating, Soybean): 98%
- plant injury at 125 g/ha (soybean (Glycine max); pre-emergence, Preemergence, read-out: Plant response rating (scale 0 to 100), Soybean): 85%
- plant injury at 16 g/ha (soybean (Glycine max); [9]): 100%
- plant injury at 31 g/ha (soybean (Glycine max); [9]): 10%
- plant injury at 62 g/ha (soybean (Glycine max); [9]): 40%
- pest or weed control at 16 g/ha ([2]; post-emergence, Postemergence, read-out: Plant response rating (scale 0 to 100), Foxtail, Giant): 5%
- pest or weed control at 31 g/ha ([2]; post-emergence, Postemergence, scale 0 to 100 (0 no effect, 100 complete control), read-out: Foxtail, Giant plant response rating): 20%
- pest or weed control at 62 g/ha [2, 10]: 10%
- pest or weed control at 125 g/ha [2, 10]: 15%
- pest or weed control at 125 g/ha ([2]; pre-emergence, Preemergence, read-out: Plant response rating (scale 0 to 100), Foxtail, Giant): 100%
- pest or weed control at 16 g/ha [2, 11]: 95%
- pest or weed control at 31 g/ha [2, 11]: 100%
- pest or weed control at 62 g/ha [2, 11]: 100%
- pest or weed control at 16 g/ha ([3]; post-emergence, Postemergence, read-out: Plant response rating (scale 0 to 100), Velvetleaf): 30%
- pest or weed control at 31 g/ha ([3]; post-emergence, Postemergence, scale 0 to 100 (0 no effect, 100 complete control), read-out: Velvetleaf plant response rating): 60%
- pest or weed control at 62 g/ha ([3]; post-emergence, Postemergence, scale 0 to 100, 0 no effect, 100 complete control, read-out: Velvetleaf plant response rating): 70%
- pest or weed control at 125 g/ha ([3]; post-emergence, Postemergence, scale 0 to 100, 0 no effect, 100 complete control, read-out: Plant response rating, Velvetleaf): 75%
- pest or weed control at 125 g/ha ([3]; pre-emergence, Preemergence, read-out: Plant response rating (scale 0 to 100), Velvetleaf): 100%
- pest or weed control at 16 g/ha [3, 12]: 100%
- pest or weed control at 31 g/ha [3, 12]: 100%
- pest or weed control at 62 g/ha [3, 12]: 100%
- pest or weed control at 16 g/ha ([4]; post-emergence, Postemergence, read-out: Plant response rating (scale 0 to 100), Ryegrass, Italian): 20%
- pest or weed control at 31 g/ha ([4]; post-emergence, Postemergence, scale 0 to 100 (0 no effect, 100 complete control), read-out: Ryegrass, Italian plant response rating): 25%
- pest or weed control at 62 g/ha ([4]; post-emergence, Postemergence, scale 0 to 100, 0 no effect, 100 complete control, read-out: Ryegrass, Italian plant response rating): 35%
- pest or weed control at 125 g/ha ([4]; post-emergence, Postemergence, scale 0 to 100, 0 no effect, 100 complete control, read-out: Plant response rating, Ryegrass, Italian): 35%
- pest or weed control at 125 g/ha ([4]; pre-emergence, Preemergence, read-out: Plant response rating (scale 0 to 100), Ryegrass, Italian): 90%
- pest or weed control at 16 g/ha [4, 13]: 30%
- pest or weed control at 31 g/ha [4, 13]: 80%
- pest or weed control at 62 g/ha [4, 13]: 85%
- pest or weed control at 16 g/ha ([5]; post-emergence, Postemergence, read-out: Plant response rating (scale 0 to 100), Crabgrass, Large): 10%
- pest or weed control at 31 g/ha ([5]; post-emergence, Postemergence, scale 0 to 100 (0 no effect, 100 complete control), read-out: Crabgrass, Large plant response rating): 10%
- pest or weed control at 62 g/ha [5, 14]: 25%
- pest or weed control at 125 g/ha [5, 14]: 35%
- pest or weed control at 125 g/ha ([5]; pre-emergence, Preemergence, read-out: Plant response rating (scale 0 to 100), Crabgrass, Large): 100%
- pest or weed control at 16 g/ha [5, 15]: 98%
- pest or weed control at 31 g/ha [5, 15]: 100%
- pest or weed control at 62 g/ha [5, 15]: 100%
- plant injury at 16 g/ha (corn (Zea mays); post-emergence, Postemergence, 16 g ai/ha, read-out: Plant response rating (scale 0 to 100), Corn): 5%
- plant injury at 31 g/ha (corn (Zea mays); post-emergence, Postemergence, 31 g ai/ha, scale 0 to 100 (0 no effect, 100 complete control), read-out: Corn plant response rating): 5%
- Corn plant response rating (crop injury, 0 = no effect, 100 = complete kill) at 62 g/ha (corn (Zea mays); post-emergence, Postemergence, scale 0 to 100, 0 no effect, 100 complete control): 10%
- Corn plant response rating (crop injury, 0 = no effect, 100 = complete kill) at 125 g/ha (corn (Zea mays); post-emergence, Postemergence, 125 g ai/ha, scale 0 to 100, 0 no effect, 100 complete control): 15%
- plant injury at 125 g/ha (corn (Zea mays); pre-emergence, Preemergence, 125 g ai/ha, read-out: Plant response rating (scale 0 to 100), Corn): 20%
- Corn plant response rating (crop injury, 0 = no effect, 100 = complete kill) at 16 g/ha (corn (Zea mays); pre-emergence, Preemergence, 16 g ai/ha, scale 0 to 100 (0 no effect, 100 complete control)): 0%
- Corn plant response rating (crop injury, 0 = no effect, 100 = complete kill) at 31 g/ha (corn (Zea mays); pre-emergence, Preemergence, 31 g ai/ha, scale 0 to 100 (0 no effect, 100 complete control)): 0%
- Corn plant response rating (crop injury, 0 = no effect, 100 = complete kill) at 62 g/ha (corn (Zea mays); pre-emergence, Preemergence, scale 0 to 100 (0 no effect, 100 complete control)): 10%
- pest or weed control at 16 g/ha ([6]; post-emergence, Postemergence, read-out: Plant response rating (scale 0 to 100), Blackgrass): 30%
- pest or weed control at 31 g/ha ([6]; post-emergence, Postemergence, scale 0 to 100 (0 no effect, 100 complete control), read-out: Blackgrass plant response rating): 30%
- pest or weed control at 62 g/ha [6, 16]: 40%
- pest or weed control at 125 g/ha [6, 16]: 90%
- pest or weed control at 125 g/ha ([6]; pre-emergence, Preemergence, read-out: Plant response rating (scale 0 to 100), Blackgrass): 90%
- pest or weed control at 16 g/ha [6, 17]: 85%
- pest or weed control at 31 g/ha [6, 17]: 90%
- pest or weed control at 62 g/ha [6, 17]: 90%
- pest or weed control at 16 g/ha ([7]; post-emergence, Postemergence, read-out: Plant response rating (scale 0 to 100), Ragweed): 30%
- pest or weed control at 31 g/ha ([7]; post-emergence, Postemergence, scale 0 to 100 (0 no effect, 100 complete control), read-out: Ragweed plant response rating): 55%
- pest or weed control at 62 g/ha ([7]; post-emergence, Postemergence, scale 0 to 100, 0 no effect, 100 complete control, read-out: Ragweed plant response rating): 60%
- pest or weed control at 125 g/ha ([7]; post-emergence, Postemergence, scale 0 to 100, 0 no effect, 100 complete control, read-out: Plant response rating, Ragweed): 40%
- pest or weed control at 125 g/ha ([7]; pre-emergence, Preemergence, read-out: Plant response rating (scale 0 to 100), Ragweed): 80%
- pest or weed control at 16 g/ha [7, 18]: 0%
- pest or weed control at 31 g/ha [7, 18]: 5%
- pest or weed control at 62 g/ha [7, 18]: 70%

Source: patent publication US10131652B2, “Pyrimidinyloxy benzene derivatives as herbicides” (E. I. DU PONT DE NEMOURS AND COMPANY, priority 2014, dated 2018)
